This is an account of results in patent US12545669B2, “Cycloalkyl and heterocycloalkyl benzisoxazole sulfonamide derivatives” (Pfizer Inc., priority 2019, dated 2026).

For one assay, the target named is MOZ-KAT6A (Homo sapiens (Human), UniProt Q92794). Kind of assay: biochemical.
The next assay addresses TIP60-KAT5 (Homo sapiens (Human), UniProt Q92993). Kind of assay: biochemical.
In a further assay the target is HBO1-KAT7 (Homo sapiens (Human), UniProt O95251). Put plainly: biochemical.
The target in a further assay is KAT6A (Homo sapiens (Human), UniProt Q92794). Put plainly: KAT assay protocol (SAMDI mass spectrometry), KAT6A. To be noted: for inhibition at 1 µM: 1 μM compound; for IC50: KAT6A IC50 at 1 μM AcCoA, 1 μM AcCoA; for Ki: KAT6A Ki at 10 μM AcCoA, 10 μM AcCoA, Morrison equation. The class given is biochemical. How it is done:
Biological Assay Section 1 KAT Assay Protocol:
A. Compound Preparation • 1. Prepare 10 mM stock solutions in 100% DMSO from solid material • 2. Serial dilute 10 mM, 1 mM or 0.1 mM compound stocks 3-fold in 100% DMSO for 11-point dose response
B. Reagent Preparation • 1. Prepare 1× assay buffer containing 10 mM Tris HCL pH 8.0, 2.5 mM NaCl, 0.5 mM EDTA, 0.005% BSG and 0.02% Tween-20 • 2. Dilute Histone peptide (CPC Scientific) and AcCoA (Sigma) together in assay buffer to 2×. • 3. Dilute KAT enzyme in assay buffer to 2×.
C. Enzyme Reaction • 1. Final reaction conditions for each KAT assay in a 20 ul assay reaction volume: • i. […] Add 0.5 ul of diluted compound to the assay plate (384-well V-bottom polypropylene plates) or 0.5 ul of DMSO for control wells. • 3. Add 10 ul of 2× Histone peptide/2× AcCoA mix to the assay plate. • 4. Add 10 ul of 2× enzyme to the assay plate. • 5. Stop the reaction after the indicated time with the addition of 2 ul of 5% formic acid • 6. Each reaction was analyzed using self-assembled monolayer desorption/ionization time-of-flight mass spectrometry (Mrksich, Milan (2008) Mass Spectrometry of Self-Assembled Monolayers: A New Tool for Molecular Surface Science ACS Nano 2008 2 (1), 7-18; SAMDI Tech, Inc. (Chicago, IL)). • 7. Area under the curve (AUC) for both substrate and product peaks was determined for KAT6A at M.W. 2723 [Substrate+H]^+ and 2765 [Product+H]^+ with a +/−1 Da tolerance, respectively. • 8. Percent conversion to product was calculated by: AUCProduct/(AUCSubstrate+AUCProduct).
D. Data Analysis • 1. IC50 values were determined by fitting the % conversion at each inhibitor concentration to the 4-parameter IC50 equation using Pfizer proprietary curve fitting software. • 2. Ki values were determined by fitting the % conversion at each inhibitor concentration to the Morrison equation for tightbinding competitive inhibitors using Pfizer proprietary curve fitting software. Materials
KAT enzymes were expressed using a baculovirus expression system and purified at Pfizer, La Jolla. Histone H3 (1-21) peptide ([…], SEQ ID NO:3) was purchased from CPC Scientific (Sunnyvale, CA). Acetyl coenzyme A was purchased from Sigma-Aldrich (St. Louis, MO). All other biochemical reagents were purchased from Sigma-Aldrich or ThermoFisher Scientific (Waltham, MA).
[…] 10 ul of 2× Histone peptide/AcCoA mix was added to a 384-well V-bottom polypropylene assay plate containing 0.5 ul of serially diluted test compound in 100% dimethyl sulfoxide (DMSO). To start the reaction, 10 ul of 2× enzyme solution was added to the assay plate. KAT assays were terminated after 30-60 minutes with the addition of 2 ul of 5% formic acid. KAT6A used histone H3 (1-21) peptide. The final enzyme concentration for KAT6A was 15 nM. Each reaction was analyzed using self-assembled monolayer desorption/ionization time-of-flight mass spectrometry (Mrksich, Milan (2008) Mass Spectrometry of Self-Assembled Monolayers: A New Tool for Molecular Surface Science ACS Nano 2008 2 (1), 7-18; SAMDI Tech, Inc. (Chicago, IL)).
Area under the curve (AUC) for both substrate and product peaks was determined for KAT6A at M.W. 2723 [Substrate+H]^+ and 2765 [Product+H]^+ with a +/−1 Da tolerance, respectively. Percent conversion to product was calculated by: AUCProduct/(AUCSubstrate+AUCProduct). IC50 values were determined by fitting the % conversion at each inhibitor concentration to the 4-parameter IC50 equation using Pfizer proprietary curve fitting software. Ki values were determined by fitting the % conversion at each inhibitor concentration to the Morrison equation for tightbinding competitive inhibitors using Pfizer proprietary curve fitting software.

Values joined by “and” are separate entries in the source; they are usually repeats but may differ in a detail not shown here. Equal values may be shown once.

As a reminder, the IC50 is the midpoint of a concentration-inhibition curve. By inhibition is commonly meant the relative decrease from the control value, in per cent. The Ki is the dissociation constant of the complex between target and ligand, obtained from inhibition or displacement.

KAT6A, sequence (Q92794 whole entry): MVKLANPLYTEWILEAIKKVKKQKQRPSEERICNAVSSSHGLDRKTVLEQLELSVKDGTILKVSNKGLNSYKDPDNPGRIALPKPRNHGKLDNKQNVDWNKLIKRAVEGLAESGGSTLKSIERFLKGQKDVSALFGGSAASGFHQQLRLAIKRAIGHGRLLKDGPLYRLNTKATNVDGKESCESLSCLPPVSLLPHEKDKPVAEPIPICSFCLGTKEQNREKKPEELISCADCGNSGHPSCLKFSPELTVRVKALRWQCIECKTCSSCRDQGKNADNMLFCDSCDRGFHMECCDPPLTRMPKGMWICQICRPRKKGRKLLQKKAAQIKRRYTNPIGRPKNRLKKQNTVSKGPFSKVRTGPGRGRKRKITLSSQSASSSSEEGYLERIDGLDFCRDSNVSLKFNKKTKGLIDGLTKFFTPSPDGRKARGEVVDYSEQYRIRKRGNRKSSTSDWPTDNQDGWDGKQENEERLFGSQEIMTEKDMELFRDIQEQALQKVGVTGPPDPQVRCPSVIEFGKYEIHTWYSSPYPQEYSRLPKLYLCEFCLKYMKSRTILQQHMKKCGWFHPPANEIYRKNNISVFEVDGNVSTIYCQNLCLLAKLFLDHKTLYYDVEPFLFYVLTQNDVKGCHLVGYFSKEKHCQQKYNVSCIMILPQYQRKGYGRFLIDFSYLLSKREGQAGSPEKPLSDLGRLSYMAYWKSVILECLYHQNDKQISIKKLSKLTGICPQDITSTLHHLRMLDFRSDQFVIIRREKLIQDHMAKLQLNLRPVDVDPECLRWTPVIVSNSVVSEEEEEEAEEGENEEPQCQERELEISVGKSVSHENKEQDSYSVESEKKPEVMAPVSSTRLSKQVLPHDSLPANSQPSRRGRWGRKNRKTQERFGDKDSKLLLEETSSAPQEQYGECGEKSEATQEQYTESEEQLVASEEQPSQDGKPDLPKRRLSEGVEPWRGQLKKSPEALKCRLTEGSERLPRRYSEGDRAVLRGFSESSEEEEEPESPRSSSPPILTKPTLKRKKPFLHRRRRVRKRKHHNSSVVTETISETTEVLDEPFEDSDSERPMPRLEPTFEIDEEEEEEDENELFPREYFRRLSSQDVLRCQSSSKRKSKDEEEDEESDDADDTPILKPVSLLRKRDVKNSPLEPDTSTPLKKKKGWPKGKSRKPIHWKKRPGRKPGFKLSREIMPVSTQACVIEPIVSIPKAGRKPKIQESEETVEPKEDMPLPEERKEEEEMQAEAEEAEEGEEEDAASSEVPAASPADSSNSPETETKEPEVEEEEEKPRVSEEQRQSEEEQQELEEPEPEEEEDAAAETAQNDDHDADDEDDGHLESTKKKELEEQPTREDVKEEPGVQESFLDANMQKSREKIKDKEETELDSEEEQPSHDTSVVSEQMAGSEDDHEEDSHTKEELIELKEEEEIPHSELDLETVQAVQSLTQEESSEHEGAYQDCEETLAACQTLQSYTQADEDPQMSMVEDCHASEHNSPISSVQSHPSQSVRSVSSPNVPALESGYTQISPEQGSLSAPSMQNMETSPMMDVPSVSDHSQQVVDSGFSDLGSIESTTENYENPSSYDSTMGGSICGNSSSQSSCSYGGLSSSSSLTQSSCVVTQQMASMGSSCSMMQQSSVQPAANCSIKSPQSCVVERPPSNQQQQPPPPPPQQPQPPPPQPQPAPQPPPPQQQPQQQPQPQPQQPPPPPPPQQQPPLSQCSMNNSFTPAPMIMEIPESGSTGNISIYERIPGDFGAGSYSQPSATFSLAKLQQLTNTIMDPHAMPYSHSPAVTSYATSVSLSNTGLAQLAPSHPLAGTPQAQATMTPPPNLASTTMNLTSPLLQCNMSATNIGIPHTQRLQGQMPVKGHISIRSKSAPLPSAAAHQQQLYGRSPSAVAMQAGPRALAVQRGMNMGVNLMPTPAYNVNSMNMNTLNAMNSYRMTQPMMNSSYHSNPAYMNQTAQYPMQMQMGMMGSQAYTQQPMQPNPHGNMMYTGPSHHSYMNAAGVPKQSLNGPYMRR
HBO1-KAT7, sequence (O95251 other isoform, or with tags, fused parts or gaps): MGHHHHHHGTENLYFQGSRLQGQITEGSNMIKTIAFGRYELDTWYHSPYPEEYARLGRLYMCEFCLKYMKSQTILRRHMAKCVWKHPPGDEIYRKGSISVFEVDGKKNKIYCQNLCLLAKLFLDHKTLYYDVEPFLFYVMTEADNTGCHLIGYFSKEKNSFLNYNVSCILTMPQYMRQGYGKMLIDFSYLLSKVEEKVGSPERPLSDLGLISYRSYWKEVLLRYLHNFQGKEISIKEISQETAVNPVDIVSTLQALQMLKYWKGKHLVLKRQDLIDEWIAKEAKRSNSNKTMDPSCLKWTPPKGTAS
TIP60-KAT5, sequence (Q92993 other isoform, or with tags, fused parts or gaps): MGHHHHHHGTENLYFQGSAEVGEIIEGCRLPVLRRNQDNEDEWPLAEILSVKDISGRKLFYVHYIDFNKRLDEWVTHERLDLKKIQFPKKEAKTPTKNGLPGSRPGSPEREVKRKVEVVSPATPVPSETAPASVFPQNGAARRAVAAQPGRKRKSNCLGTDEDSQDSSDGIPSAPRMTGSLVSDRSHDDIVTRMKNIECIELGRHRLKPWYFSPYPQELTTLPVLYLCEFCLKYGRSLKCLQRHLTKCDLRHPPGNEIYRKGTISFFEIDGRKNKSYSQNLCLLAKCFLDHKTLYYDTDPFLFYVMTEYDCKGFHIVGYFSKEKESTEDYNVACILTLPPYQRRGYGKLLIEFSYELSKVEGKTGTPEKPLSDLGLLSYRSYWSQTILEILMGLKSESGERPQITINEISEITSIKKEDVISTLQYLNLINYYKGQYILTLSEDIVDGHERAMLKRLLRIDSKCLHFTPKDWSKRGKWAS
MOZ-KAT6A, sequence (Q92794 other isoform, or with tags, fused parts or gaps): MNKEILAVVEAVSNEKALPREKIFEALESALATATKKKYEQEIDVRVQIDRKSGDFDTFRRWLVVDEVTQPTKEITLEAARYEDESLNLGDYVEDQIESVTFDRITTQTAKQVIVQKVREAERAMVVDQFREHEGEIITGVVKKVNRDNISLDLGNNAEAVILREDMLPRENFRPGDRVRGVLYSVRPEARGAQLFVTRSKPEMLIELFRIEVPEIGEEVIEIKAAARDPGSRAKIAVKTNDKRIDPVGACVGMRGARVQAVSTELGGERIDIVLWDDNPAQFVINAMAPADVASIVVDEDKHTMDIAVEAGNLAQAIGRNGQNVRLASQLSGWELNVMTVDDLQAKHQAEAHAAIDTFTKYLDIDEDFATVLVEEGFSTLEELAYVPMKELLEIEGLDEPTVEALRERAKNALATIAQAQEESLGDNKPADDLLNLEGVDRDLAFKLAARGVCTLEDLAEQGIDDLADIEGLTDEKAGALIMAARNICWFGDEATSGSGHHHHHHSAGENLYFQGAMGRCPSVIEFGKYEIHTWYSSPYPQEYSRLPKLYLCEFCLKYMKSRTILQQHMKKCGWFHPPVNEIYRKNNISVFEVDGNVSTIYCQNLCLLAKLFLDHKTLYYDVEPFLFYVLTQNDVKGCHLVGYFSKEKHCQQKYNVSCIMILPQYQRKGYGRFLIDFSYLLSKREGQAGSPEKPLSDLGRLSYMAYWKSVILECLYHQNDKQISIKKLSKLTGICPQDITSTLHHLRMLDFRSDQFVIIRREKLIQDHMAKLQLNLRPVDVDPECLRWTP

For the compound `COc1cc(Cn2cccn2)cc2onc(NS(=O)(=O)C3CCCCC3)c12` [Example 124], the IC50 was 30 nM against MOZ-KAT6A, 2400 nM at TIP60-KAT5, 440 nM against HBO1-KAT7 and 117 nM at KAT6A. In addition, at KAT6A, the inhibition at 1 µM came out at 88%. Consider `COc1cc(Cn2cccn2)cc2onc(NS(=O)(=O)CC3CCCCC3)c12` [Example 123], for which the IC50 against MOZ-KAT6A turned out to be 15 nM; against TIP60-KAT5, 9040 nM; against HBO1-KAT7, 1260 nM; on KAT6A it was 28.9 nM. The inhibition at 1 µM against KAT6A was 85%. Further, the affinity at KAT6A, expressed as Ki, was 5.44 nM. Take `COc1cc(Cn2cccn2)cc2onc(NS(=O)(=O)CCC3CCCCC3)c12` [Example 31]: at KAT6A, the inhibition at 1 µM was 93% and the Ki came to 4.94 nM. On to `COc1cc(Cn2cccn2)cc2onc(NS(=O)(=O)CC3CCCOC3)c12` (centres unmarked) [Example 98], for which, on KAT6A, the inhibition at 1 µM worked out at 41%. With `COc1cc(Cn2cccn2)cc2onc(NS(=O)(=O)CCCC3CCOCC3)c12` [Example 104], on KAT6A, the inhibition at 1 µM amounted to 80%. Consider `COc1cc(Cn2cccn2)cc2onc(NS(=O)(=O)CCOCC3CCC3)c12` [Example 126], for which the IC50 at KAT6A worked out at 133 nM. That is a sub-micromolar value.

Compound `COc1cc(Cn2cccn2)cc2onc(NS(=O)(=O)CC3CCCO3)c12` (centres unmarked) [Example 6] registered an IC50 against KAT6A of 371 nM. Against the preceding compound, the IC50 is about 2.8-fold higher. As to `COc1cc(Cn2cccn2)cc2onc(NS(=O)(=O)CCN3CCOCC3)c12` [Example 130], half-maximal inhibition against KAT6A (IC50) required 187 nM. Consider `COc1cc(Cn2cccn2)cc2onc(NS(=O)(=O)CC3(C#N)CC3)c12` [Example 35], for which the inhibition at 1 µM on KAT6A came out at 40%.

With `COc1cc(Cn2cccn2)cc2onc(NS(=O)(=O)CCN3CCCC3)c12` [Example 129], at KAT6A, the inhibition at 1 µM came to 16%.

Take `COc1cc(Cn2cccn2)cc2onc(NS(=O)(=O)C3(C)CCC3)c12` [Example 81]: the inhibition at 1 µM on KAT6A came out at 41%. For `COc1cc(Cn2cccn2)cc2onc(NS(=O)(=O)C3CCOC3=O)c12` (centres unmarked) [Example 99], on KAT6A, the inhibition at 1 µM came to 83%. Same read-out and setting: the result for `COc1cc(Cn2cccn2)cc2onc(NS(=O)(=O)CC3CCOC(C)C3)c12` (centres unmarked) [Example 103] reads 75%; that for `COc1cc(Cn2cccn2)cc2onc(NS(=O)(=O)CCC3CCOC3)c12` (centres unmarked) [Example 112], 68%.

Regarding `COc1cc(Cn2cccn2)cc2onc(NS(=O)(=O)CC3CCCCC3(F)F)c12` (centres unmarked) [Example 41], at KAT6A, the inhibition at 1 µM was found to be 91%. Regarding `COc1cc(Cn2cccn2)cc2onc(NS(=O)(=O)C3COC(C)(C)C3)c12` (centres unmarked) [Example 90], at KAT6A, the inhibition at 1 µM was found to be 83%; the inhibition constant Ki was 66.2 nM and 58.1 nM. As for `COc1cc(Cn2cccn2)cc2onc(NS(=O)(=O)CC3CC(OC)C3)c12` (centres unmarked) [Example 69], the inhibition at 1 µM on KAT6A is 78%. As for `COc1cc(Cn2cccn2)cc2onc(NS(=O)(=O)CCC3CCC3)c12` [Example 29], on KAT6A, the inhibition at 1 µM came out at 103% and the affinity corresponds to a Ki of 13.1 nM. Consider `COc1cc(Cn2cccn2)cc2onc(NS(=O)(=O)CC(C)OCC3CCCC3)c12` (centres unmarked) [Example 127], for which inhibition against KAT6A was half-maximal at 36 nM (IC50). `COc1cc(Cn2cccn2)cc2onc(NS(=O)(=O)CC34CCC(CC3)CC4)c12` [Example 24]: on KAT6A, the inhibition at 1 µM came to 93% and affinity was put at a Ki of 19.5 nM. The like results for `COc1cc(Cn2cccn2)cc2onc(NS(=O)(=O)CC3CC34CC4)c12` (centres unmarked) [Example 57] were, in that order, 104% and 13.9 nM.

With `COc1cc(Cn2cccn2)cc2onc(NS(=O)(=O)[C@@H]3CCCN(C(=O)OCc4ccccc4)C3)c12` [Example 91], the inhibition at 1 µM against KAT6A stood at 53%. On the same count and under the same terms, the result for `COc1cc(Cn2cccn2)cc2onc(NS(=O)(=O)C3CC(C)C3)c12` (centres unmarked) [Example 73] reads 96%. `COc1cc(Cn2cccn2)cc2onc(NS(=O)(=O)CC(OC)C3CCCC3)c12` (centres unmarked) [Example 70]: at KAT6A, the inhibition at 1 µM came out at 80%.
